According to US20180087086A1, “CELL EGRESS AND INVASION INHIBITORS AND THEIR USE AS ANTIPARASITICAL AGENTS” (THE JOHNS HOPKINS UNIVERSITY, priority 2015, published 2018):

How the values were obtained:
P. berghei sporozoites [1] = experiment: trail radius of gliding sporozoites (ImageJ); type: cell-based; conditions: 62.5 μM; 130-150 trail radii; p-value <0.0001
Procedure: The trail radius was measured using ImageJ and the statistical analyses to determine standard error mean and t-test were performed using GraphPad.
The gliding phenotype was altered to determine whether the compounds were having off-target effects. While quantifying the number of deposited trails, the trail diameter in the presence of compounds was altered. An altered trail diameter is more likely due to either a direct effect on the motor or an effect on sporozoite shape. The diameter of the circular trails deposited by the parasites in the DMSO control was measured and in the presence of three compounds at 62.5 μM (FIG. 8). This concentration was chosen because at higher concentrations, there were not enough sporozoite trails to measure to do a statistical analysis of the results. Using ImageJ, circles were fit to trails in multiple images to measure 130-150 trail radii. The average trail radii increased in the presence of compounds 4, 17, and 18 with a p-value <0.0001. The increase in average trail size was 6.3 microns, 2.5 microns, and 3.6, for compounds 4, 17, and 18, respectively.

sporozoites [2] = experiment: sporozoite viability, propidium iodide exclusion assay; type: cell-based; conditions: 10 min at 18° C. then 15 min at 37° C., DMSO 85%, read-out: sporozoite viability (PI exclusion)
Procedure: (§1) FIG. 12A-FIG. 12C is a series of bar charts that show results of sporozoite viability assays. […] The total number of sporozoites was determined from phase images and the number of non-viable sporozoites from the count of red fluorescing sporozoites.
To determine if the compounds' mode of action was by causing cell death, viability assays to look at compound effects were performed. In a first test of viability, a propidium iodide exclusion assay was used (FIG. 12A). The total number of sporozoites was determined from in phase imaging and the number of non-viable sporozoites from the count of red fluorescing sporozoites. […] 250 μM of compound 4 reduced viability to 79% while compound 18 indicated a protective effect with 93% viability.

[3] = target: MTRAP interaction with aldolase (Plasmodium falciparum, UniProt Q7KQL9); experiment: MTRAP-aldolase interaction via SPR; type: binding, P. falciparum; conditions: as a function of compound concentration
Procedure: (§2) FIG. 5A (Top) TRAP and FIG. 5B (Bottom) MTRAP show the interaction with aldolase in the presence of compounds 4 and 18 as a function of compound concentration as measured via SPR.
(§3) The dissociation constant for PfAldolase and PfTRAP, MTRAP and PvTRAP was measured by determining the binding response at various concentrations of aldolase passed over a chip with bound, biotinylated peptides (FIG. 3). Dissociation constants were in the mid-nanomolar range and matched with values previously reported in the literature (Boucher LE and Bosch J, J. Mol Recognit. 2013 Oct. 26(10): 496-500).
(§4) (FIG. 5A) TRAP and (FIG. 5B) MTRAP interaction with aldolase in the presence of compounds 4 and 18 is illustrated as a function of compound concentration as measured via SPR.

sporozoites [4] = experiment: gliding motility assay with compound washout (reversibility); type: cell-based
Procedure: FIG. 13 B is a series of photomicrographs that show representative images from slides of gliding sporozoites. DMSO treated sporozoites (a, upper left) with circular gliding pattern versus (b, upper right) pyrazole-urea compound treated sporozoites with a unique wavy line gliding pattern. Below are images of a compound 4 washout slide at 7.8 μM showing a similar wavy gliding patterns in addition to circular gliding (c, d).
A gliding motility assay with a compound washout step was also performed to measure the reversibility of the compound's effects. The sporozoites were incubated at for a total of 20 min with the compound before they were washed and re-suspend and allowed to glide.

[5] = target: TRAP interaction with aldolase (Plasmodium falciparum, UniProt Q7KQL9); experiment: TRAP-aldolase interaction via SPR; type: binding, P. falciparum; conditions: as a function of compound concentration
Procedure: as §2, §3, §4

sporozoites [6] = experiment: sporozoite viability, LIVE/DEAD fixable violet assay; type: cell-based
Excerpt: However, the viability decrease is not high enough to account for the levels of non-gliding sporozoites observed in the gliding assays.

sporozoites [7] = experiment: sporozoite viability, 2 dye system of ethidium and calcein-AM; type: cell-based; conditions: for viability at 62.5 µM: 0.25 h, 15 min at room temperature, DMSO 96%; for sporozoite viability (ethidium/calcein-AM): extended 15 min incubation at 37° C.
Procedure: as §1
To further investigate viability, a 2 dye system of ethidium and calcein-AM was used to measure both membrane permeability, a marker of death, and enzyme activity, a marker of viability (FIG. 12B). Live cells with intact membranes are impermeable to the ethidium DNA dye but are permeable to the calcein-AM dye, which can interact with active esterases and will fluoresce green. Dying cells allow the ethidium to cross the membrane and interact with DNA, fluorescing red. This two color readout allowed discrimination between live versus dead sporozoites. Sporozoites were incubated at room temperature with two different concentrations of compounds for 15 min and then counted. […] Compound 4 and 18 at 62.5 μM reduced sporozoite viability to 82% and 88%, respectively. At these concentrations, assays could be performed such that the compounds would not kill the parasite. Instead, the compounds merely impaired parasite mobility, indicating an on-target effect of the small molecule on Aldolase-TRAP. By modulating this interaction, despite not killing the parasites at that point, a dramatic reduction in liver cell invasion was observed (FIG. 14A). […] As these dyes are unable to be fixed and sporozoites are not viable for long periods of time, it is possible that there are some viability variances due to difference in time from incubation with the dye until counting.

P. berghei sporozoites [8] = experiment: in vitro sporozoite gliding assay (CSP trails on anti-CSP coated slides); type: cell-based; conditions: for effect on gliding motility (comparison among the five compounds): 250-31.25 μM; for share of gliding sporozoites that were low gliding (less than 10 trails) / sporozoites gliding: lowest concentration of compound (31.25 μM)
Procedure: Compounds selected from the initial hit list were tested using in vitro gliding assays. Five compounds were selected for dose dependent testing on gliding motility based on early crystallographic experiments and first round gliding assay experiments at high concentration.
P. berghei sporozoites were purified from mosquitoes, incubated with compound, and allowed to glide on anti-CSP coated slides. The CSP-trails deposited by the gliding parasites were detected with anti-CSP antibodies. Trails were quantified for each sporozoite. The ability of each sporozoite to glide was categorized as no gliding (0 trails), and low (<10 trails), medium (10-20 trails), and high gliding (>20 trails).
In the DMSO control, more than 90% of sporozoites deposited trails, with >60% classified as medium and high gliding (>10 trails). […] At lower concentrations of compounds, the sporozoites did start to recover their gliding ability. However, for compound 4 at the lowest concentration of compound, less than 60% of the sporozoites were gliding and when they did glide, 90% of those sporozoites were depositing less than 10 trails and upon inspection of multiple fields, they typically could only complete one circular trail. For compound 18, less than 25% of sporozoites were able to glide at the lowest compound concentration and 75% of those sporozoites were low gliding, with less than 10 trails deposited; however, these low gliding parasites typically deposited more than 1 trail, unlike those from compound 4. […] However, from this single assay, it is not possible to assess whether the compounds were directly affecting the motor through the proposed TRAP-Aldolase interaction, by affecting an energy production step necessary to generate ATP for motor power, or by cytocidal effect.

Chain of MTRAP interaction with aldolase (Q7KQL9 whole entry): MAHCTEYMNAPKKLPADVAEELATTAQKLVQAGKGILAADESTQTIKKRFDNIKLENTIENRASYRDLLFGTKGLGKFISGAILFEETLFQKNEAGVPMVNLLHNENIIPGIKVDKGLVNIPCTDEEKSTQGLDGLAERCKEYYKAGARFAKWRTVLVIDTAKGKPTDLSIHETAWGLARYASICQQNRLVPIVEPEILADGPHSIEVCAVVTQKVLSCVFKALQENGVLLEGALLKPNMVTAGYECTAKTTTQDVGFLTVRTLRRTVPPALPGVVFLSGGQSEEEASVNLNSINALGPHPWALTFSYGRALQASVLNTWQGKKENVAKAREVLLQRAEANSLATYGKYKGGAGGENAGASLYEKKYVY
Chain of TRAP interaction with aldolase (Q7KQL9 whole entry): as above
Chain of TRAP interaction with aldolase (P16893 516-559, further chain): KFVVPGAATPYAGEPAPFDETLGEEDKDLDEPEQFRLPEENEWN

Row | SMILES | increase in average trail size (trail radius) vs DMSO control (P. berghei sporozoites [1]) [microns] | viability at 250 µM (sporozoites [2]) [%] | binding interaction of MTRAP with aldolase in presence of compound [3] | reversibility of gliding effect after washout (sporozoites [4]; any concentration) | number of high gliding parasites after washout, relative to DMSO control (sporozoites [4]; less than 8 μM) [%] | total number of parasites gliding after washout (sporozoites [4]; less than 8 μM) | binding interaction of TRAP with aldolase in presence of compound [5] | effect on viability in LIVE/DEAD assay (sporozoites [6]) | viability at 62.5 µM (sporozoites [7]) [%] | sporozoite viability (ethidium/calcein-AM) (sporozoites [7]) | effect on gliding motility (comparison among the five compounds) (P. berghei sporozoites [8]) | share of gliding sporozoites that were low gliding (less than 10 trails) (P. berghei sporozoites [8]) [%] | sporozoites gliding (P. berghei sporozoites [8]) | reversibility of gliding effect after washout (sporozoites [4]; 31.25 μM) | reversibility of gliding effect after washout (sporozoites [4]; 62.5 μM) | reversibility of gliding effect after washout (sporozoites [4]; 15.625 and 7.8125 μM, 20 min incubation before wash)
1 | Brc1ccc(Nc2nc3ccccc3nc2Nc2ccc(Br)cc2)cc1 [Compound 4, N,N′-bis(4-bromophenyl)-2,3-quinoxalinediamine] | 6.3 | 79 | Increased binding interaction | no complete reversibility | 10 | comparable to wild type | Increased binding interaction | greater decrease in viability | 82 | 66% | greatest effect | 90 | less than 60% |  |  | 
2 | CCCCn1c(N)c(C(=O)NCc2ccccc2)c2nc3ccccc3nc21 [Compound 18, 2-amino-N-benzyl-1-butyl-1H-pyrrolo[2,3-b]quinoxaline-3-carboxamide] | 3.6 | 93 | Increased binding interaction |  |  |  | Increased binding interaction | relatively mild | 88 | did not differ from the control | greatest effect | 75 | less than 25% | the number of high-gliding parasites increased | little reversibility | completely reversible
